Measurements from US9079919B2 (HOFFMANN-LA ROCHE INC., priority 2011, dated 2015).
Where a name gives a salt, the structure may show the parent alone.

Columns and labels:
Format in all cases: cell-based
BACE1 [1] = molecular target: T1, BACE1 (Homo sapiens, UniProt P56817); test: Cellular Aβ-lowering assay b) (Abeta 40 AlphaLISA Assay); details: cellular assay b): HEK293 APP cells, Aβ40 in supernatant by AlphaLISA after 18-20 hrs; read-out: BACE1 cell act. Aβ40 IC50
T1 construct: Human HEK293 cells which are stably transfected with a vector expressing a cDNA of the human APP wt gene (APP695); endogenous in cells; host or cells: HEK293 cells stably transfected with human APP695 (wt)
Experimental: b) Alternatively, the Abeta 40 AlphaLISA Assay can be used. The HEK293 APP cells were seeded in 96 well Microtiter plates in cell culture medium (Iscove's, plus 10% (v/v) fetal bovine serum, penicillin/streptomycin) to about 80% confluency and the compounds were added at a 3× concentration in 1/3 volume of culture medium (final DMSO concentration was kept at 1% v/v). After 18-20 hrs incubation at 37° C. and 5% CO2 in a humidified incubator, the culture supernatants were harvested for the determination of Aβ 40 concentrations using Perkin-Elmer Human Amyloid beta 1-40 (high specificity) Kit (Cat#AL275C).
In a Perkin-Elmer White Optiplate-384 (Cat#6007290), 2 ul culture supernatants were combined with 2 μl of a 10× AlphaLISA Anti-hAβ Acceptor beads+Biotinylated Antibody Anti-Aβ 1-40 Mix (50 μg/mL/5 nM). After 1 hour room temperature incubation, 16 μl of a 1.25× preparation of Streptavidin (SA) Donor beads (25 μg/mL) were added and incubated for 30 minutes in the Dark. Light Emission at 615 nm was then recorded using EnVision-Alpha Reader. Levels of Aβ 40 in the culture supernatants were calculated as percentage of maximum signal (cells treated with 1% DMSO without inhibitor). The IC50 values were calculated using the Excel XLfit software.

BACE1 [2] = molecular target: T1, BACE1; test: Cellular Aβ-lowering assay a) (Aβ40 ELISA); details: cellular assay a): HEK293 cells expressing human APP695, Aβ40 in supernatant by ELISA after 18-20 hrs; read-out: BACE1 cell act. Aβ40 IC50
Experimental: a) Human HEK293 cells which are stably transfected with a vector expressing a cDNA of the human APP wt gene (APP695) were used to assess the potency of the compounds in a cellular assay. The cells were seeded in 96-well microtiter plates in cell culture medium (Iscove, plus 10% (v/v) fetal bovine serum, glutamine, penicillin/streptomycin) to about 80% confluence and the compounds were added at a 10× concentration in 1/10 volume of medium without FCS containing 8% DMSO (final concentration of DMSO was kept at 0.8% v/v). After 18-20 hrs incubation at 37° C. and 5% CO2 in a humidified incubator the culture supernatant was harvested for the determination of Aβ40 concentrations. 96 well ELISA plates (e.g., Nunc MaxiSorb) were coated with monoclonal antibody which specifically recognize the C-terminal end of Aβ40 (Brockhaus et al., NeuroReport 9, 1481-1486; 1998). After blocking of non-specific binding sites with e.g. 1% BSA and washing, the culture supernatants were added in suitable dilutions together with a horseradish peroxidase-coupled Aβ detection antibody (e.g., antibody 4G8, Senetek, Maryland Heights, Mo.) and incubated for 5 to 7 hrs. Subsequently the wells of the microtiter plate were washed extensively with Tris-buffered saline containing 0.05% Tween 20 and the assay was developed with tetramethylbenzidine/H2O2 in citric acid buffer. After stopping the reaction with one volume of 1N H2SO4 the reaction was measured in an ELISA reader at 450 nm wavelength. The concentrations of Aβ in the culture supernatants were calculated from a standard curve obtained with known amounts of pure Aβ peptide.

BACE2 = molecular target: T2, BACE2 (Rattus norvegicus, UniProt Q6IE75); test: Assay for BACE inhibition by measuring cellular TMEM27 cleavage; details: INS-TMEM27 cells (INS1e-derived), shed human TMEM27 by ELISA; read-out: BACE2 cell act. IC50
T2 construct: endogenous cellular BACE2 in the Ins1e rat cell line; endogenous in cells; host or cells: INS-TMEM27 (INS1e-derived rat cell line with doxycycline-inducible full-length human TMEM27)
T2 sequence (Q6IE75 63-514): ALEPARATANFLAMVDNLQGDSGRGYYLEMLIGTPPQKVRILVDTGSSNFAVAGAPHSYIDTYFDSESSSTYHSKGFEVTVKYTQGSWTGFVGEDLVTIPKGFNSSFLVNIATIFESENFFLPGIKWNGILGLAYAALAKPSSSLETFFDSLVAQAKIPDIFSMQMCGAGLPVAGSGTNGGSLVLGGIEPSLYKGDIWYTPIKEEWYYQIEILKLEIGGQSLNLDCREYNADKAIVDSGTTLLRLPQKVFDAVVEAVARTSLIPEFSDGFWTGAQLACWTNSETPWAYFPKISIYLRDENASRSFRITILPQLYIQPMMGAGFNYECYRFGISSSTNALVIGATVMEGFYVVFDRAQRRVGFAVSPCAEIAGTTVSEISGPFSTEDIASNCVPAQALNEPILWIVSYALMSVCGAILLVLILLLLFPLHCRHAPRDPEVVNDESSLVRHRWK
Text: The assay uses the principle of inhibition of human TMEM27 cleavage by endogenous cellular BACE2 in the Ins1e rat cell line and shedding from the cell surface into the culture medium, followed by detection in an ELISA assay. Inhibition of BACE2 prevents the cleavage and shedding in a dose-dependent manner.
The stable cell line “INS-TMEM27” represents an INS1e-derived cell line with inducible expression (using the TetOn system) of full-length hTMEM27 in a doxycycline-dependent manner. The cells are cultured throughout the experiment in RPMI1640+ Glutamax (Invitrogen) Penicillin/Streptomycin, 10% Fetal bovine serum, […], […], 100 micrograms/ml G418 and 100 microgram/ml hygromycin and are grown inadherent culture at 37° C. in a standard CO2 cell culture incubator.
INS-TMEM27 cells are seeded in 96-well plates. After 2 days in culture, BACE2 inhibitor is added in a range of concentrations as required by the assay and after a further two hours, doxycycline is added to a final concentration of 500 ng/ml. The cells are incubated for a further 46 hours and the supernatant harvested for detection of shed TMEM27.
An ELISA assay (using a pair of mouse anti-human-TMEM27 antibodies, raised against the extracellular domain of TMEM27) is used for detection of TMEM27 in the culture medium. An EC50 for BACE2 inhibition is calculated using the ELISA readout for each inhibitor concentration with standard curve-fitting software such as XLFit for the Excel spreadsheet program.

T1 sequence (P56817 46-501): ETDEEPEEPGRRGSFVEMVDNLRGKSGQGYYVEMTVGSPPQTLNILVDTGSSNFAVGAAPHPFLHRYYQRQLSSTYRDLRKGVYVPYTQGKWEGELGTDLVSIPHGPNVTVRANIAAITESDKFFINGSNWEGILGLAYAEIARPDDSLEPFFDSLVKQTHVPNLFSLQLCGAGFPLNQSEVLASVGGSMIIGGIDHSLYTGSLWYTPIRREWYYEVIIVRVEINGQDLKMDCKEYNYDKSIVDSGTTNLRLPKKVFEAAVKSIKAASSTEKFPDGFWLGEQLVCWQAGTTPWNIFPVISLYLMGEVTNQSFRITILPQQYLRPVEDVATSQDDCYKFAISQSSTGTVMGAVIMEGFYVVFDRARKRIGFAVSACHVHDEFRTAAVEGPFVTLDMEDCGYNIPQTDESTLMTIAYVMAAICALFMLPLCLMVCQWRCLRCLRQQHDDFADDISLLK

SMILES | IC50 (BACE1 [1]) | IC50 (BACE1 [2]) | IC50 (BACE2)
NC1=N[C@@]2(C[C@]3(CCCOC3)Oc3ccc(-c4cncc(Cl)c4)cc32)C(F)(F)CO1 [Example 31, (2′S,4R)-6′-(5-Chloropyridin-3-yl)-5,5-difluoro-5,5″,6,6″-tetrahydro-4″H-dispiro[1,3-oxazine-4,4′-chromene-2′,3″-pyran]-2-amine formate] | 9000 nM |  | 
NC1=N[C@@]2(CCc3ccc(-c4cncc(Cl)c4)cc32)C(F)(F)CO1 [Example 9, (R)-6-(5-Chloropyridin-3-yl)-5′,5′-difluoro-2,3,5′,6′-tetrahydrospiro[indene-1,4′-[1,3]oxazin]-2′-amine] |  | 790 nM | 3580 nM
NC1=N[C@@]2(CCOc3ccc(-c4cc(Cl)cc(Cl)c4)cc32)C(F)(F)CO1 [Example 20, (R)-6-(3,5-dichlorophenyl)-5′,5′-difluoro-5′,6′-dihydrospiro[chroman-4,4′-[1,3]oxazin]-2′-amine] |  | 2020 nM | 3990 nM
N#Cc1cccc(-c2ccc3c(c2)[C@@]2(C[C@@]4(CCCOC4)O3)N=C(N)OCC2(F)F)c1 [Example 30, 3-[(2′R,4R)-2-Amino-5,5-difluoro-5,5″,6,6″-tetrahydro-4″H-dispiro[1,3-oxazine-4,4′-chromene-2′,3″-pyran]-6′-yl]benzonitrile formate] | 6580 nM |  | 
COc1cncc(-c2ccc3c(c2)[C@@]2(CCO3)N=C(N)OCC2(F)F)c1 [Example 22, (R)-5′,5′-difluoro-6-(5-methoxypyridin-3-yl)-5′,6′-dihydrospiro[chroman-4,4′-[1,3]oxazin]-2′-amine] |  | 2780 nM | 926 nM
NC1=N[C@@]2(CCOc3ccc(-c4cncc(Cl)c4)cc32)C(F)(F)CO1 [Example 19, (R)-6-(5-Chloropyridin-3-yl)-5′,5′-difluoro-5′,6′-dihydrospiro[chroman-4,4′-[1,3]oxazin]-2′-amine] |  | 380 nM | 124 nM
NC1=N[C@@]2(CCOc3ccc(-c4cc(Cl)cc(Cl)c4)cc32)C(F)(F)COC1 [Example 55, (R)-6-(3,5-Dichlorophenyl)-6′,6′-difluoro-6′,7′-dihydro-2′H-spiro[chroman-4,5′-[1,4]oxazepin]-3′-amine] |  | 3830 nM | 10500 nM
NC1=N[C@@]2(CCSc3ccc(-c4cncc(Cl)c4)cc32)C(F)(F)CO1 [Example 32, (R)-6′-(5-Chloropyridin-3-yl)-5,5-difluoro-5,6-dihydrospiro[[1,3]oxazine-4,4′-thiochroman]-2-amine] |  | 676 nM | 1950 nM
NC1=N[C@@]2(CCc3ccc(-c4cc(Cl)cc(Cl)c4)cc32)C(F)(F)CO1 [Example 8, (R)-6-(3,5-Dichlorophenyl)-5′,5′-difluoro-2,3,5′,6′-tetrahydrospiro[indene-1,4′-[1,3]oxazin]-2′-amine] |  | 2450 nM | 2730 nM
NC1=N[C@@]2(CCOc3ccc(NC(=O)c4ncc(Cl)cc4Cl)cc32)C(F)(F)COC1 [Example 51, (R)—N-(3′-Amino-6′,6′-difluoro-6′,7′-dihydro-2′H-spiro[chroman-4,5′-[1,4]oxazepine]-6-yl)-3,5-dichloropicolinamido] |  | 1690 nM | 5870 nM

More lines, now with the values ahead:

IC50 (BACE1 [1]) | IC50 (BACE1 [2]) | IC50 (BACE2) | SMILES
 | 1110 nM | 13000 nM | CC1(C)CC[C@@]2(N=C(N)OCC2(F)F)c2cc(NC(=O)c3ccc(C#N)cn3)ccc21 [Example 14, (R)—N-(2′-Amino-5′,5′-difluoro-4,4-dimethyl-3,4,5′,6′-tetrahydro-2H-spiro[naphthalene-1,4′-[1,3]oxazine]-7-yl)-5-cyanopicolinamide]
 | 35 nM | 438 nM | NC1=N[C@@]2(CCSc3ccc(NC(=O)c4ccc(Cl)cn4)cc32)C(F)(F)CO1 [Example 42, (R)—N-(2-Amino-5,5-difluoro-5,6-dihydrospiro[[1,3]oxazine-4,4′-thiochroman]-6′-yl)-5-chloropicolinamide]
 | 80 nM | 1920 nM | N#Cc1ccc(C(=O)Nc2ccc3c(c2)[C@@]2(CCO3)N=C(N)OCC2(F)F)nc1 [Example 34, (R)—N-(2′-Amino-5′,5′-difluoro-5′,6′-dihydrospiro[chroman-4,4′-[1,3]oxazine]-6-yl)-5-cyanopicolinamide]
 | 5 nM | 116 nM | N#Cc1ccc(C(=O)Nc2ccc3c(c2)[C@@]2(CCC3)N=C(N)OCC2(F)F)nc1 [Example 13, (R)—N-(2′-Amino-5′,5′-difluoro-3,4,5′,6′-tetrahydro-2H-spiro[naphthalene-1,4′-[1,3]oxazine]-7-yl)-5-cyanopicolinamide]
 | 100 nM | 543 nM | NC1=N[C@@]2(CCCc3ccc(-c4cncc(Cl)c4)cc32)C(F)(F)CO1 [Example 1, (R)-7-(5-Chloropyridin-3-yl)-5′,5′-difluoro-3,4,5′,6′-tetrahydro-2H-spiro[naphthalene-1,4′-[1,3]oxazin]-2′-amine]
 | 360 nM | 986 nM | NC1=N[C@@]2(CCOc3ccc(NC(=O)c4ccc(Cl)cn4)cc32)C(F)(F)CO1 [Example 33, (R)—N-(2′-Amino-5′,5′-difluoro-5′,6′-dihydrospiro[chroman-4,4′-[1,3]oxazine]-6-yl)-5-chloropicolinamide]
 | 80 nM | 526 nM | N#Cc1cncc(-c2ccc3c(c2)[C@@]2(CCC3)N=C(N)OCC2(F)F)c1 [Example 2, (R)-5-(2′-Amino-5′,5′-difluoro-3,4,5′,6′-tetrahydro-2H-spiro[naphthalene-1,4′-[1,3]oxazine]-7-yl)nicotinonitrile]
 | 10 nM | 148 nM | N#Cc1ccc(C(=O)Nc2ccc3c(c2)[C@@]2(CCS3)N=C(N)OCC2(F)F)nc1 [Example 43, (R)—N-(2-Amino-5,5-difluoro-5,6-dihydrospiro[[1,3]oxazine-4,4′-thiochroman]-6′-yl)-5-cyanopicolinamide]
